From US5969098A, “Yeast-toxin-related protein for antimicrobial vaccine and sterilizing preservative use” (CyberChemics, Inc., priority 1997, dated 1999) come the findings set out here.

Where no end group is shown, it is not given here.

The data set relates to human red blood cells. Kind of data set: hemolysis of human red blood cells in whole blood (extracellular hemoglobin, spectrophotometric). The data set is classed as cell-based. Conditions: human red blood cells exposed in whole blood, peptide concentration 63 ug/mL. The source says:
Table III lists the approximate pharmacokinetics of synthetic peptides described in the present invention which solubilize readily, persist in conformationally active secondary structures in vivo, and induce lysis of representative bacteria, yeast and fungi. These determinations derive from optical density readings (O.D.) and rely on spectrophotometric absorbance from known initial concentrations as reference standards. It is worth noting that although the peptide antimicrobials show 30+% homology with the yeast killer toxin beta subunit fragment, they have very favorable safety profiles on mammalian cells. For example, when human red blood cells are exposed in whole blood to SEQ. […] Perhaps, as significant, the safety profile derives from very specific amino acid substitutions, since substitution for less than 20% of the amino acids in SEQ. 1 renders SEQ. 2 hemolytic to 20% at 63 ug/mL and 35% substitution in SEQ. 1 renders SEQ. 3 hemolytic to 100%. Therefore, sequence identity and variation translate directly to the functional balance between microbial inhibition and mammalian safety. The optimal therapeutic index for dosage and effective antimicrobial inhibition of a particular polypeptide or salt thereof follow routinely without elaborate laboratory determinations by those skilled in the art of pharmacokinetics and metabolic pathways using, for instance, various cytochrome and liver enzymes in vivo.
LLLLKKLLKLMNLLKKLGHY [SEQ. 3] showed a hemolysis of 100%.
The same measure for LVLLKKLMKKYKKLKKLGGL [SEQ. 1]: “no hemolysis is detectable”; for LLLLKLLLKKNPKLKKLIGV [SEQ. 2]: 20%.
